Assay results reported in patent publication US8697641B2, “4-amino-4-oxobutanoyl peptide cyclic analogues, inhibitors of viral replication” (Achillion Pharmaceuticals, Inc., priority 2008, dated 2014).

system: Hepatitis C replicon; assay: HCV replicon assay (NPT ELISA readout) in Huh-7 replicon-containing cells; format: cell-based, Hepatitis C virus; settings: Hepatitis C virus, 72 h; HCV replicon in Huh-7 cells, three days incubation
Experimental: Compounds claimed herein are tested for the ability to inhibit viral replication of the Hepatitis C replicon in cultured cells in which the HCV replicon construct has been incorporated. The HCV replicon system was described by Bartenschlager, et. al (Science, 285, pp. 110-113 (1999)). The replicon system is predictive of in vivo anti-HCV activity; compounds that are active in humans uniformly evidence activity in the replicon assay.
In this assay HCV replicon containing cells are treated with different concentrations of the test compound to ascertain the ability of the test compound to suppress replication of the HCV replicon. As a positive control, HCV replicon-containing cells are treated with different concentrations of interferon alpha, a known inhibitor of HCV replication. The replicon assay system includes Neomycin Phosphotransferase (NPT) as a component of the replicon itself in order to detect the transcription of replicon gene products in the host cell. Cells in which the HCV replicon is actively replicating have high levels of NPT; the level of NPT is proportional to HCV replication. […] The NPT level of each sample is measured using a captured ELISA.
A protocol for testing compounds for the ability to inhibit viral replication of the Hepatitis C replicon cultured cells in which the replicon construct has been incorporated, follows.
The HCV replicon contains, 5′-3′, the HCV-IRES, the neomycin phosphotransferase (neo) gene, the IRES of encephalomyocarditis virus, which directs translation of HCV sequences NS3 to NS5B, and the 3′-NTR. The sequence of the HCV replicon has been deposited in GenBank (Accession no. AJ242652).
The replicon is transfected into Huh-7 cells using standard methods such as electroporation.
The equipment and materials include, but are not limited to, Huh-7 HCV replicon-containing cells, maintenance media (DMEM (Dulbecco's modified Eagle media) supplemented with 10% FBS, L-glutamine, non-essential amino acids, penicillin (100 units/ml), streptomycin (100 micrograms/ml), and 500 micrograms/ml of Geneticin (G418), screening media (DMEM supplemented with 10% FBS, L-glutamine, non-essential amino acids, penicillin (100 units/ml) and streptomycin (100 micrograms/ml)), 96 well tissue culture plates (flat bottom), 96 well plates (U bottom for drug dilution), Interferon alpha for positive control, fixation reagent (such as methanol:acetone), primary antibody (rabbit anti-NPTII), secondary antibody: Eu-N1 l, and enhancement solution.
The cells are then seeded onto 96-well plates at a density of 6000-7500 cells/100 microliters/well (6-7.5×10^5 cells/10 ml/plate). The plates are then incubated at 37° C. in a 5% CO2 incubator.
HCV replicon-containing cells are rinsed with once PBS once; 2 mls of trypsin are then added. Cells are incubated at 37° C. in a 5% CO2 incubator for 3-5 minutes. 10 mls of complete medium is added to stop the reaction. Cells are blown gently, put into a 15 ml tube, and spun at 1200 rpm for four minutes. The trypsin/medium solution is removed and 5 mls of medium (500 ml DMEM (high glucose)) from BRL catalog #12430-054; 50 mls 10% FBS, 5% Geneticin G418 (50 mg/ml, BRL catalog #10131-035), 5 ml MEM non-essential amino acids (100×BRL #11140-050) and 5 ml pen-strep (BRL #15140-148) is added. The cells and media are mixed carefully
Cells are plated with screening medium (500 ml DMEM (BRL #21063-029), 50 ml FBS (BRL #10082-147) and 5 ml MEM non-essential amino acid (BRL #11140-050) at 6000-7500 fcells/100 μl/well of 96 well plate (6-7.5×10^5 cells/10 ml/plate). Plates are placed into 37° C. 5% CO2 incubator overnight.
The following morning, drugs (test compounds or interferon alpha) are diluted in 96 well U bottom plates with media or DMSO/media, depending on the final concentration chosen for screening. Generally for 6 concentrations of each test compounds ranging from 10 micromolar to 0.03 micromolar are applied. […]

**Q.** COc1ccc2c(O[C@@H]3C[C@H]4C(=O)N[C@]5(C(=O)NS(=O)(=O)C6CC6)C[C@H]5/C=C\CCCCC[C@H](CC(=O)N5CCCC5)C(=O)N4C3)cc(-c3ccccc3)nc2c1 [Compound 55, (2R,6R,13aS, 14aR,16aS,Z)-N-(cyclopropylsulfonyl)-2-(7-methoxy-2-phenylquinolin-4-yloxy)-5,16-dioxo-6-(2-oxo-2-(pyrrolidin-1-yl)ethyl)-1,2,3,5,6,7,8,9,10,11, 13a,14,14a,15,16,16a-hexadecahydrocyclopropa [e]pyrrolo[1,2-a][1,4] diazacyclopentadecine-14a-carboxamide] was tested. Which EC50 did it give?
**A.** < 1000 nM

**Q.** For COc1ccc2c(O[C@@H]3C[C@H]4C(=O)N[C@@H](C(=O)NS(=O)(=O)C5CC5)C/C=C\CCCCC[C@H](CC(=O)N5CCCCC5)C(=O)N4C3)cc(-c3ccccc3)nc2c1 [Compound 56, (3R,12R,16R,17aS, Z)-N-(cyclopropylsulfonyl)-16-(7-methoxy-2-phenylquinolin-4-yloxy)-1,13-dioxo-12-(2-oxo-2-(piperidin-1-yl)ethyl)-2,3,4,7,8,9,10,11, 12,13,15,16,17,17a-tetradecahydro-1H-pyrrolo[1,2-a][1,4] diazacyclopentadecine-3-carboxamide], which EC50 is on record?
**A.** 1000 to 10000 nM

**Q.** For COc1ccc2c(O[C@@H]3C[C@H]4C(=O)N[C@H](C(=O)NS(=O)(=O)C5CC5)C/C=C\CCCCC[C@H](CC(=O)N5CCCCC5)C(=O)N4C3)cc(-c3ccccc3)nc2c1 [Compound 57, (3S,12R,16R,17aS,Z)-N-(cyclopropylsulfonyl)-16-(7-methoxy-2-phenylquinolin-4-yloxy)-1,13-dioxo-12-(2-oxo-2-(piperidin-1-yl)ethyl)-2,3,4,7,8,9,10,11, 12,13,15,16,17,17a-tetradecahydro-1H-pyrrolo[1,2-a][1,4] diazacyclopentadecine-3-carboxamide], which EC50 is on record?
**A.** 1000 to 10000 nM

**Q.** With COc1ccc2c(O[C@@H]3C[C@H]4C(=O)N[C@]5(C(=O)NS(=O)(=O)C6CC6)C[C@H]5/C=C\CCCCC[C@H](CC(=O)O)C(=O)N4C3)cc(-c3ccccc3)nc2c1 [Compound 59, 2-((2R,6R,13aS, 14aR,16aS,Z)-14a-(cyclopropylsulfonyl-carbamoyl)-2-(7-methoxy-2-phenylquinolin-4-yloxy)-5,16-dioxo-1,2,3,5,6,7,8,9,10,11, 13a,14,14a,15,16,16a-hexadecahydrocyclopropa [e]pyrrolo[1,2-a][1,4]diazacyclopentadecin-6-yl)acetic acid] as the compound, how does the EC50 read?
**A.** < 1000 nM

**Q.** Which EC50 does the source give for COc1ccc2c(O[C@@H]3C[C@H]4C(=O)N[C@]5(C(=O)NS(=O)(=O)C6CC6)C[C@H]5/C=C\CCCCC[C@H](CC(=O)N5CCOCC5)C(=O)N4C3)cc(-c3ccccc3)nc2c1 [Compound 60, (2R,6R,13aS, 14aR,16aS,Z)-N-(cyclopropylsulfonyl)-2-(7-methoxy-2-phenylquinolin-4-yloxy)-6-(2-morpholino-2-oxoethyl)-5,16-dioxo-1,2,3,5,6,7,8,9,10,11, 13a,14,14a,15,16,16a-hexadecahydrocyclopropa [e]pyrrolo[1,2-a][1,4] diazacyclopentadecine-14a-carboxamide] here?
**A.** < 1000 nM

**Q.** Which EC50 does the source give for COc1ccc2c(O[C@@H]3C[C@H]4C(=O)N[C@]5(C(=O)NS(=O)(=O)C6CC6)C[C@H]5/C=C\CCCCC[C@H](CC(=O)N5CCC(F)(F)CC5)C(=O)N4C3)cc(-c3ccccc3)nc2c1 [Compound 61, (2R,6R,13aS, 14aR,16aS,Z)-N-(cyclopropylsulfonyl)-6-(2-(4,4-difluoropiperidin-1-yl)-2-oxoethyl)-2-(7-methoxy-2-phenylquinolin-4-yloxy)-5,16-dioxo-1,2,3,5,6,7,8,9,10,11, 13a,14,14a,15,16,16a-hexadecahydrocyclopropa [e]pyrrolo[1,2-a][1,4] diazacyclopentadecine-14a-carboxamide] here?
**A.** < 1000 nM

**Q.** With COc1ccc2c(O[C@@H]3C[C@H]4C(=O)N[C@]5(C(=O)NS(=O)(=O)C6CC6)C[C@H]5/C=C\CCCCC[C@H](CC(=O)N5CCC(C(F)(F)F)CC5)C(=O)N4C3)cc(-c3ccccc3)nc2c1 [Compound 62, (2R,6R,13aS, 14aR,16aS,Z)-N-(cyclopropylsulfonyl)-2-(7-methoxy-2-phenylquinolin-4-yloxy)-5,16-dioxo-6-(2-oxo-2-(4-(trifluoromethyl)piperidin-1-yl)ethyl)-1,2,3,5,6,7,8,9,10,11, 13a,14,14a,15,16,16a-hexadecahydrocyclopropa [e]pyrrolo[1,2-a][1,4] diazacyclopentadecine-14a-carboxamide] as the compound, how does the EC50 read?
**A.** < 1000 nM

**Q.** With COc1ccc2c(O[C@@H]3C[C@H]4C(=O)N[C@]5(C(=O)NS(=O)(=O)C6CC6)C[C@H]5/C=C\CCCCC[C@H](CC(=O)N5CCC(F)(F)C5)C(=O)N4C3)cc(-c3ccccc3)nc2c1 [Compound 63, (2R,6R,13aS, 14aR,16aS,Z)-N-(cyclopropylsulfonyl)-6-(2-(3,3 - difluoropyrrolidin-1-yl)-2-oxoethyl)-2-(7-methoxy-2-phenylquinolin-4-yloxy)-5,16-dioxo-1,2,3,5,6,7,8,9,10,11, 13a,14,14a,15,16,16a-hexadecahydrocyclopropa [e]pyrrolo[1,2-a][1,4] diazacyclopentadecine-14a-carboxamide] as the compound, how does the EC50 read?
**A.** < 1000 nM

**Q.** With COc1ccc2c(O[C@@H]3C[C@H]4C(=O)NC(C)(C(=O)O)C/C=C\CCCCC[C@H](CC(=O)N5CCCCC5)C(=O)N4C3)cc(-c3ccccc3)nc2c1 (stereo partly drawn) [Compound 64, (12R,16R,17aS,Z)-16-(7-methoxy-2-phenylquinolin-4-yloxy)-3-methyl-1,13-dioxo-12-(2-oxo-2-(piperidin-1-yl)ethyl)-2,3,4,7,8,9,10,11, 12,13,15,16,17,17a-tetradecahydro-1H-pyrrolo[1,2-a][1,4] diazacyclopentadecine-3-carboxylic acid] as the compound, how does the EC50 read?
**A.** 1000 to 10000 nM

**Q.** Which EC50 does the source give for COc1ccc2c(O[C@@H]3C[C@H]4C(=O)N[C@@](C)(C(=O)NS(=O)(=O)C5CC5)C/C=C\CCCCC[C@H](CC(=O)N5CCCCC5)C(=O)N4C3)cc(-c3ccccc3)nc2c1 [Compound 65, (3R,12R,16R,17aS,Z)-N-(cyclopropylsulfonyl)-16-(7-methoxy-2-phenylquinolin-4-yloxy)-3-methyl-1,13-dioxo-12-(2-oxo-2-(piperidin-1-yl)ethyl)-2,3,4,7,8,9,10, 11,12,13,15,16,17,17a-tetradecahydro-1H-pyrrolo[1,2-a][1,4] diazacyclopentadecine-3-carboxamide] here?
**A.** 1000 to 10000 nM

**Q.** Which EC50 does the source give for COc1ccc2c(O[C@@H]3C[C@H]4C(=O)N[C@](C)(C(=O)NS(=O)(=O)C5CC5)C/C=C\CCCCC[C@H](CC(=O)N5CCCCC5)C(=O)N4C3)cc(-c3ccccc3)nc2c1 [Compound 66, (3S,12R,16R,17aS,Z)-N-(cyclopropylsulfonyl)-16-(7-methoxy-2-phenylquinolin-4-yloxy)-3-methyl-1,13-dioxo-12-(2-oxo-2-(piperidin-1-yl)ethyl)-2,3,4,7,8,9,10, 11,12,13,15,16,17,17a-tetradecahydro-1H-pyrrolo[1,2-a][1,4] diazacyclopentadecine-3-carboxamide] here?
**A.** 1000 to 10000 nM

**Q.** COc1ccc2c(O[C@@H]3C[C@H]4C(=O)N[C@]5(C(=O)NS(=O)(=O)C6CC6)C[C@H]5/C=C\CCCCC[C@H](CC(=O)N5CCN(C(=O)OC(C)(C)C)CC5)C(=O)N4C3)cc(-c3ccccc3)nc2c1 [Compound 67, tert-butyl 4-(2-((2R,6R, 13aS,14aR,16aS,Z)-14a-(cyclopropylsulfonyl-carbamoyl)-2-(7-methoxy-2-phenylquinolin-4-yloxy)-5,16-dioxo-1,2,3,5,6,7,8,9,10,11, 13a,14,14a,15,16,16a-hexadecahydrocyclopropa [e]pyrrolo[1,2-a][1,4]diazacyclopentadecin-6-yl)acetyl)piperazine-1-carboxylate] was tested. Which EC50 did it give?
**A.** < 1000 nM
